Test system: E. coli
Experiment: MIC of imipenem, ertapenem and meropenem
Type: cell-based, Escherichia coli

C[C@@H](O)[C@H]1C(=O)N2C(C(=O)O)=C(SCCN=CN)C[C@H]12 [IPM, imipenem]
MIC (E. coli 1008 (TEM-1 + CTX-M-1)): 0.19 µg/mL
MIC (E. coli 1008, CTX-M-1 + TEM-1, non-carbapenemase producer): 0.19 µg/mL
MIC (E. coli 1020, CTX-M-1 + TEM-1, non-carbapenemase producer): 0.19 µg/mL
MIC (E. coli 1023, CTX-M-2 + TEM-1, non-carbapenemase producer): 0.12 µg/mL
MIC (E. coli 1033, CTX-M-15, non-carbapenemase producer): 0.19 µg/mL
MIC (E. coli 1034 (TEM-1 + SHV-38)): 0.19 µg/mL
MIC (E. coli 1034, TEM-1 + SHV-38, non-carbapenemase producer): 0.19 µg/mL
MIC (E. coli 1048 (TEM-1 + SHV-2a)): 0.19 µg/mL
MIC (E. coli 1048, TEM-1 + SHV-2a, non-carbapenemase producer): 0.19 µg/mL
MIC (E. coli 1082 (TEM-1)): 0.19 µg/mL
MIC (E. coli 1082, TEM-1, non-carbapenemase producer): 0.19 µg/mL
MIC (E. coli 1092 (OXA-1)): 0.12 µg/mL
MIC (E. coli 1092, OXA-1, non-carbapenemase producer): 0.12 µg/mL
MIC (E. coli 6252, (wild type), non-carbapenemase producer): 0.12 µg/mL
MIC (E. coli 6367 (wild type)): 0.19 µg/mL
MIC (E. coli 6367, (wild type), non-carbapenemase producer): 0.19 µg/mL
MIC (E. coli 10121 (CTX-M-2)): 0.19 µg/mL
MIC (E. coli 10121, CTX-M-2, non-carbapenemase producer): 0.19 µg/mL
MIC (E. coli 10122, CTX-M-1 + TEM-1, non-carbapenemase producer): 0.19 µg/mL
MIC (E. coli 0404018, VIM-1+ CMY-6): 3 µg/mL
MIC (E. coli 1008077, VIM-1+ TEM-1 + CTX-M-15): >32 µg/mL
MIC (E. coli 1108013, IMP-1 + TEM-1): 0.5 µg/mL
MIC (E. coli ALL (NDM-1 + OXA-1 + OXA-2 + CTX-M-15 + TEM-1)): 4 µg/mL
MIC (E. coli ALL, NDM-1 + TEM-1 + CTX-M-15 + OXA-1 + OXA-2): 4 µg/mL
MIC (E. coli AME (OXA-48 + CTX-M-24)): 0.25 µg/mL
MIC (E. coli AME, OXA-48 + CTX-M-24): 0.25 µg/mL
MIC (E. coli AUS (NDM-1 + CTX-M-15 + TEM-1)): 6 µg/mL
MIC (E. coli AUS, NDM-1 + TEM-1 + CTX-M-15): 6 µg/mL
MIC (E. coli BER (OXA-48 + CTX-M-15)): 0.38 µg/mL
MIC (E. coli BER, OXA-48 + TEM-1 + CTX-M-15): 0.38 µg/mL
MIC (E. coli BOK (OXA-48 + CTX-M-15)): 0.25 µg/mL
MIC (E. coli BOK, OXA-48 + CTX-M-15): 0.25 µg/mL
MIC (E. coli BON (OXA-48 + CTX-M-24 + TEM-1)): 0.38 µg/mL
MIC (E. coli BON, OXA-48 + TEM-1 + CTX-M-24): 0.38 µg/mL
MIC (E. coli BOU (OXA-48 + CTX-M-15)): 0.5 µg/mL
MIC (E. coli BOU, OXA-48 + CTX-M-15): 0.5 µg/mL
MIC (E. coli COL (KPC-2)): 4 µg/mL
MIC (E. coli COL, KPC-2 + TEM-1 + CTX-M-9): 4 µg/mL
MIC (E. coli DIH (VIM-19)): 8 µg/mL
MIC (E. coli DIH, VIM-19): 8 µg/mL
MIC (E. coli DIN, KPC-2 + TEM-1 + OXA-1): 1 µg/mL
MIC (E. coli E14 (CTX-M-14)): 0.12 µg/mL
MIC (E. coli E14, CTX-M-14, non-carbapenemase producer): 0.12 µg/mL
MIC (E. coli ECA (ACC-1)): 0.12 µg/mL
MIC (E. coli ECA, ACC-1, non-carbapenemase producer): 0.12 µg/mL
MIC (E. coli EVB (VEB-1)): 0.12 µg/mL
MIC (E. coli EVB, VEB-1, non-carbapenemase producer): 0.12 µg/mL
MIC (E. coli FOR (CTX-M-15)): 0.12 µg/mL
MIC (E. coli FOR, CTX-M-15, non-carbapenemase producer): 0.12 µg/mL
MIC (E. coli GEN (NDM-1 + OXA-1 + CMY-30 + TEM-1)): 8 µg/mL
MIC (E. coli GEN, NDM-1 + TEM-1 + CMY-30 + OXA-1): 8 µg/mL
MIC (E. coli GOG (OXA-48 + CTX-M-24)): 0.5 µg/mL
MIC (E. coli GUE (NDM-1 + OXA-1 + TEM-1)): 3 µg/mL
MIC (E. coli GUE, NDM-1 + TEM-1 + OXA-1): 3 µg/mL
MIC (E. coli HAN (OXA-48 + CTX-M-15)): 3 µg/mL
MIC (E. coli HAN, OXA-48 + CTX-M-15): 3 µg/mL
MIC (E. coli HB4 (OmpC-, OmpF-)): 0.12 µg/mL
MIC (E. coli HB4, (OmpC-, OmpF-), non-carbapenemase producer, porin deficiency): 0.12 µg/mL
MIC (E. coli IR5 (NDM-1 + CTX-M-15 + TEM-1)): 16 µg/mL
MIC (E. coli IR5, NDM-1 + TEM-1 + CTX-M-15): 16 µg/mL
MIC (E. coli JAP (IMP-1)): 0.5 µg/mL
MIC (E. coli JAP, IMP-1): 0.5 µg/mL
MIC (E. coli LIL, KPC-2 + TEM-1 + OXA-9): 2 µg/mL
MIC (E. coli MAD (VIM-1 + CTX-M-3)): 1.5 µg/mL
MIC (E. coli MAD, VIM-1+ CTX-M-3): 1.5 µg/mL
MIC (E. coli MAR (Overexpressed AmpC)): 16 µg/mL
MIC (E. coli MAR, Overexpressed AmpC, non-carbapenemase producer): 16 µg/mL
MIC (E. coli MET (Chromosome-encoded extended-spectrum cephalosporinase)): 0.12 µg/mL
MIC (E. coli MET, Chromosome-encoded extended-spectrum cephalosporinase, non-carbapenemase producer): 0.12 µg/mL
MIC (E. coli NAA (OXA-48 + CTX-M-24)): 0.5 µg/mL
MIC (E. coli OM3, OXA-48 + TEM-1 + CTX-M-15): 0.5 µg/mL
MIC (E. coli OM20, NDM-1 + TEM-1 + CTX-M-15): 2 µg/mL
MIC (E. coli OM22, OXA-48 + TEM-1 + CTX-M-15): 0.5 µg/mL
MIC (E. coli PSP (KPC-2)): 0.5 µg/mL
MIC (E. coli PSP, KPC-2 + TEM-1 + OXA-1): 0.5 µg/mL
MIC (E. coli RIC (NDM-1 + OXA-1 + OXA-10 + CMY-16)): 1 µg/mL
MIC (E. coli RIC, NDM-1 + CMY-16 + OXA-1 + OXA-10): 1 µg/mL
MIC (E. coli ROB (OXA-48)): 0.5 µg/mL
MIC (E. coli ROB, OXA-48): 0.5 µg/mL
MIC (E. coli SYD (CMY-2)): 0.12 µg/mL
MIC (E. coli SYD, CMY-2, non-carbapenemase producer): 0.12 µg/mL
MIC (E. coli TWA, IMP-8 + SHV-12): 6 µg/mL
MIC (E. coli ZAN, OXA-48 + TEM-1 + CTX-M-14): 0.38 µg/mL
MIC (strain E. coli 1008, TEM-1 + CTX-M-1, non-carbapenemase producer): 0.19 µg/mL

From patent US9328374B2, “Selective culture medium and method for detecting carbapenem-resistant bacteria in a test sample” (Institut National de la Sante et de la Recherche Medicale …, priority 2011, dated 2016)
